{"source": "paper PMC5342759", "about": "“An inhibitor of cholesterol absorption displays anti-myeloma activity by targeting the JAK2-STAT3 signaling pathway” (Oncotarget, 2016)", "experiment_in_all_cases": "HotSpot radiometric kinase assay, purified recombinant human kinase, 10-dose IC50", "format_in_all_cases": "biochemical", "key": {"JAK2": {"target": "JAK2 (Homo sapiens, UniProt O60674)", "sequence (O60674 whole entry)": "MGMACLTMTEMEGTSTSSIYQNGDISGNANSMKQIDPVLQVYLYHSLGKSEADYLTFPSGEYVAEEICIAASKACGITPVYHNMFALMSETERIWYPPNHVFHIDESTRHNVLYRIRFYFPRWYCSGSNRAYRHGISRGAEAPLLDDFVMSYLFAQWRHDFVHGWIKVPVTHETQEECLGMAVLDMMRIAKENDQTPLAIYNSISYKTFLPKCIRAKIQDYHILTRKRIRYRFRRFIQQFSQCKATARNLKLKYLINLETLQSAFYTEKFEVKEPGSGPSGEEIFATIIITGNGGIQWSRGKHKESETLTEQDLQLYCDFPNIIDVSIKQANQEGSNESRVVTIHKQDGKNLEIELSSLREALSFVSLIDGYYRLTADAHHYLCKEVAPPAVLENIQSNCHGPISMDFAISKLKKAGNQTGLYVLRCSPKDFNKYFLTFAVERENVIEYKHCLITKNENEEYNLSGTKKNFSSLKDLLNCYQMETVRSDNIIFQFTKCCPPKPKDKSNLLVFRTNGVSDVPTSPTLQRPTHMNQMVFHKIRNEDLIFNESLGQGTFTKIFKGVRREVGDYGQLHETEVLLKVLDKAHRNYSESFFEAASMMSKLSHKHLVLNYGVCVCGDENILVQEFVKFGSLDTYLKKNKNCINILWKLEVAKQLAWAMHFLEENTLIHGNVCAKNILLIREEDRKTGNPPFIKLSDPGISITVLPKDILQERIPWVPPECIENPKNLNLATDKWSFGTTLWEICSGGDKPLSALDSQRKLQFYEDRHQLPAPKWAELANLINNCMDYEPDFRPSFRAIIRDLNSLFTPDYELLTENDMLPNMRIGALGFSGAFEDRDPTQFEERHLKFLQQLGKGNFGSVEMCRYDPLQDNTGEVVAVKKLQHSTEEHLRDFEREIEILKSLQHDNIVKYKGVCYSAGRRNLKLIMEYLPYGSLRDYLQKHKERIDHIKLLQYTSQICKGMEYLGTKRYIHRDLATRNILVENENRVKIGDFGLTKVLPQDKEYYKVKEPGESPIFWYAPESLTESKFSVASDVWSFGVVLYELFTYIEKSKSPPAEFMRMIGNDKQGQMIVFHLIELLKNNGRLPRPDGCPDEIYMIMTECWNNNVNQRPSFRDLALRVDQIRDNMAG"}, "TYK2": {"target": "TYK2 (Homo sapiens, UniProt P29597)", "sequence (P29597 whole entry)": "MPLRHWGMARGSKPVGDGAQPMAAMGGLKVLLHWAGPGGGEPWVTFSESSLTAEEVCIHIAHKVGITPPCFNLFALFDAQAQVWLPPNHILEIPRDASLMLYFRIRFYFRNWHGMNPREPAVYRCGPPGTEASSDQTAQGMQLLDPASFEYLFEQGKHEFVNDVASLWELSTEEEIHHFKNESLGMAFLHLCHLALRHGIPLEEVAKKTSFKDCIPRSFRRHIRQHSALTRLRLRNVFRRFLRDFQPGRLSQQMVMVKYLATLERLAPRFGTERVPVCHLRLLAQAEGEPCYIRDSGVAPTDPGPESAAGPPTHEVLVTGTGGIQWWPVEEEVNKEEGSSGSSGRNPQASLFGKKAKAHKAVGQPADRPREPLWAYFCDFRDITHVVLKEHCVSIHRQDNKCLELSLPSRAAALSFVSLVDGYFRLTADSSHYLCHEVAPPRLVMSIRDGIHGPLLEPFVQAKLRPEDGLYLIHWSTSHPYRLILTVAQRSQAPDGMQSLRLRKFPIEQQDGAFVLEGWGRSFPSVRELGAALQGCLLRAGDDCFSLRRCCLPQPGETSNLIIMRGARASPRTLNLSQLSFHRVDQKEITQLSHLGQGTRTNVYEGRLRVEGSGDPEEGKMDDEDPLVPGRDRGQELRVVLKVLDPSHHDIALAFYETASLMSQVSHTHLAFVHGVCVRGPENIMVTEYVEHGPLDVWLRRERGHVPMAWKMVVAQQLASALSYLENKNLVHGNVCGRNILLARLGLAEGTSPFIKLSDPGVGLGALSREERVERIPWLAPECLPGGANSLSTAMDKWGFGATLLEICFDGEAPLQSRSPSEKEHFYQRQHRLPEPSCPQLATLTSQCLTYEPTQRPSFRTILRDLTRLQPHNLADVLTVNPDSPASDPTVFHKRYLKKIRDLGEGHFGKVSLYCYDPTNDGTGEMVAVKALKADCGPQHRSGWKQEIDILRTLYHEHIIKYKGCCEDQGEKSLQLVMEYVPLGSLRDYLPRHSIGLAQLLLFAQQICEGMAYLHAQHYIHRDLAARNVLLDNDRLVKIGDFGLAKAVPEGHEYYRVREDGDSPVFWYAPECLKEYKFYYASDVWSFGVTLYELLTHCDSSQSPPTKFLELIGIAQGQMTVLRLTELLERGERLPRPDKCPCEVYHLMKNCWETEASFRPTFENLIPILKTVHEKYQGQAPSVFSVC"}, "JAK3": {"target": "T1, JAK3 (Homo sapiens, UniProt P52333)", "T1 sequence (P52333 1-1124)": "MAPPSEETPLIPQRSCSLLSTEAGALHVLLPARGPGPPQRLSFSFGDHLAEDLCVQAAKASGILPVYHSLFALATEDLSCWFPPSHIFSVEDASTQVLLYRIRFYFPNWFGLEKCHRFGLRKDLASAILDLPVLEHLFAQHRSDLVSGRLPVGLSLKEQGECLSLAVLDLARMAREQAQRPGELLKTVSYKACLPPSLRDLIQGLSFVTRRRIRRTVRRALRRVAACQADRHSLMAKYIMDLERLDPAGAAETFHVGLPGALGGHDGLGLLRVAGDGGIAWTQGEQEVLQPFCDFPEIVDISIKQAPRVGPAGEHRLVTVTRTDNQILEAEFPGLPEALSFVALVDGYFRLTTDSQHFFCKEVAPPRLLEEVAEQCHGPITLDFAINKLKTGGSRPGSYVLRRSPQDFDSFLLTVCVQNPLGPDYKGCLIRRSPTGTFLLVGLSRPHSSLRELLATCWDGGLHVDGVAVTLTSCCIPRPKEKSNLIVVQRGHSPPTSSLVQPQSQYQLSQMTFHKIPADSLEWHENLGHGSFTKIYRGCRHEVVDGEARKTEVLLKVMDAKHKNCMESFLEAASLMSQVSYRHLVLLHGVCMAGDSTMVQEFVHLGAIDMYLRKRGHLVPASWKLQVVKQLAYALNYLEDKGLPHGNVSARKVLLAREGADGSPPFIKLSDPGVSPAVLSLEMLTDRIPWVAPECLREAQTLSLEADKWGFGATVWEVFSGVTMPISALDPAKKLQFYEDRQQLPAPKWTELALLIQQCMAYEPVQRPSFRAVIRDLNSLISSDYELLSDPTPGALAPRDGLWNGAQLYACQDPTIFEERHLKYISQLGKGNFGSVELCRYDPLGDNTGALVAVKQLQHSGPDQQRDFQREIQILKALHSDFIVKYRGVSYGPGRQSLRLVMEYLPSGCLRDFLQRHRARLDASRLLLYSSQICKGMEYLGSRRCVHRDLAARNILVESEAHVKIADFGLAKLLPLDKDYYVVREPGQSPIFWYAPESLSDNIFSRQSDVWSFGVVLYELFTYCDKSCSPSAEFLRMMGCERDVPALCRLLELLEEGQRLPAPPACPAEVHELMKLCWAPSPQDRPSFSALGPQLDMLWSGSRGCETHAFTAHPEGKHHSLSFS"}, "JAK1": {"target": "JAK1 (Homo sapiens, UniProt P23458)", "sequence (P23458 whole entry)": "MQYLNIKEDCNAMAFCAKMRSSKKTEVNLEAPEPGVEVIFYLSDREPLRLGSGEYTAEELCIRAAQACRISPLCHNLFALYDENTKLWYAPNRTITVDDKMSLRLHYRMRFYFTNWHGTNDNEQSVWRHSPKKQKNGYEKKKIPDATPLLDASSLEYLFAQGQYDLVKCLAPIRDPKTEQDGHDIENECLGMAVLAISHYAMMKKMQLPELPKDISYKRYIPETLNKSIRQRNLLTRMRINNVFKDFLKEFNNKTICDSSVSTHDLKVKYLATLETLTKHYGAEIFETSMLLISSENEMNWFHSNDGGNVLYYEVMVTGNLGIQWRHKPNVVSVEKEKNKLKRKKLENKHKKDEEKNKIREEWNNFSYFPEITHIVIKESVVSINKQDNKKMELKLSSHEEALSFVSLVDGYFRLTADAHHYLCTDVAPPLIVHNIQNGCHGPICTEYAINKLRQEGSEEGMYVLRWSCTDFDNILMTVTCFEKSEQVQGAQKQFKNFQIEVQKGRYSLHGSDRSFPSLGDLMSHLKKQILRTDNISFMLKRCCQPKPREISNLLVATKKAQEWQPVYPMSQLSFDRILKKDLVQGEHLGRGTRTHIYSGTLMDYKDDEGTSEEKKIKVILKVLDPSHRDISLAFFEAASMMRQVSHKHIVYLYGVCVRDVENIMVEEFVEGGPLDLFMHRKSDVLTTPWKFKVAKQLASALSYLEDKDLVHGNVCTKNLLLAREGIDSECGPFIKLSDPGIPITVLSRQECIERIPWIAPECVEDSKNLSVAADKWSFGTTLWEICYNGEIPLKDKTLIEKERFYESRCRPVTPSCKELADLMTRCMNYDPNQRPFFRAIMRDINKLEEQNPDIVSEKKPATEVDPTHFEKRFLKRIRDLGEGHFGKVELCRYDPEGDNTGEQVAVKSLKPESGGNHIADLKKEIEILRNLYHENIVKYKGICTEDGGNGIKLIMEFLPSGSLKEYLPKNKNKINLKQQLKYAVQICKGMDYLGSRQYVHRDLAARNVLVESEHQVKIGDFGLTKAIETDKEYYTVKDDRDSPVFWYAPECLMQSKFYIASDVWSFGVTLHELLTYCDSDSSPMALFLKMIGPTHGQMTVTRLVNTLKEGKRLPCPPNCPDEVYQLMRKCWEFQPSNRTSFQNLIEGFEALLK"}}, "data": [{"smiles": "N#C/C(=N\\Nc1ccc(C(F)(F)F)cc1)S(=O)(=O)c1cccs1", "note": "[SC09]", "values": [{"measurement": "IC50", "setting": "JAK2", "result": 8.88, "unit": "µM"}, {"measurement": "IC50", "setting": "TYK2", "result": 111, "unit": "µM"}, {"measurement": "IC50", "setting": "JAK3", "result": 139, "unit": "µM"}, {"measurement": "IC50", "setting": "JAK1", "result": 153, "unit": "µM"}]}]}
